{
  "source": "ChEMBL document CHEMBL1136646",
  "about": "“Biphenyls as potent vitronectin receptor antagonists. Part 2: biphenylalanine ureas” (Bioorg Med Chem Lett, 2003)",
  "data": [
    {"target": "Integrin alpha-V/beta-3 (Homo sapiens, UniProt P05106+P06756)", "sequence (P05106 27-788 limits assumed)": "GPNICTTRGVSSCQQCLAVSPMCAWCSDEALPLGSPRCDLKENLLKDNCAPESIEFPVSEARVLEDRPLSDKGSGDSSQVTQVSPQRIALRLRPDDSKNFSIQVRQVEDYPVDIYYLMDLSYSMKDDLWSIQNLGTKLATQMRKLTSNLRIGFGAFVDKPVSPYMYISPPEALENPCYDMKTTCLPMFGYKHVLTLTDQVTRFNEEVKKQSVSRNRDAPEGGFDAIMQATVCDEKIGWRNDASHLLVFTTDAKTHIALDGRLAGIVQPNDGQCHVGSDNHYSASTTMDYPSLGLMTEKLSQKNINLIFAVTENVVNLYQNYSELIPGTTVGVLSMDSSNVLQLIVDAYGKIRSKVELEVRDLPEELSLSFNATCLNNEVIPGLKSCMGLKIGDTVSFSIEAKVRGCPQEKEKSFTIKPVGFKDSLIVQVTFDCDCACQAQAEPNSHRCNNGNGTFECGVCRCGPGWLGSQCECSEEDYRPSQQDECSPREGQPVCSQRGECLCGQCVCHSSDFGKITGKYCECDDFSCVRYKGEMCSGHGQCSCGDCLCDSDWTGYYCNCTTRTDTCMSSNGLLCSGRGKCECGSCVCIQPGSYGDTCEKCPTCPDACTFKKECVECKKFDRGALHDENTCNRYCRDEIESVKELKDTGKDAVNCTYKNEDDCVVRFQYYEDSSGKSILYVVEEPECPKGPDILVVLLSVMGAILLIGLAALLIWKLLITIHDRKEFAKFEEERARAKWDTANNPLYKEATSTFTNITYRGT", "sequence (P06756 31-889 limits assumed)": "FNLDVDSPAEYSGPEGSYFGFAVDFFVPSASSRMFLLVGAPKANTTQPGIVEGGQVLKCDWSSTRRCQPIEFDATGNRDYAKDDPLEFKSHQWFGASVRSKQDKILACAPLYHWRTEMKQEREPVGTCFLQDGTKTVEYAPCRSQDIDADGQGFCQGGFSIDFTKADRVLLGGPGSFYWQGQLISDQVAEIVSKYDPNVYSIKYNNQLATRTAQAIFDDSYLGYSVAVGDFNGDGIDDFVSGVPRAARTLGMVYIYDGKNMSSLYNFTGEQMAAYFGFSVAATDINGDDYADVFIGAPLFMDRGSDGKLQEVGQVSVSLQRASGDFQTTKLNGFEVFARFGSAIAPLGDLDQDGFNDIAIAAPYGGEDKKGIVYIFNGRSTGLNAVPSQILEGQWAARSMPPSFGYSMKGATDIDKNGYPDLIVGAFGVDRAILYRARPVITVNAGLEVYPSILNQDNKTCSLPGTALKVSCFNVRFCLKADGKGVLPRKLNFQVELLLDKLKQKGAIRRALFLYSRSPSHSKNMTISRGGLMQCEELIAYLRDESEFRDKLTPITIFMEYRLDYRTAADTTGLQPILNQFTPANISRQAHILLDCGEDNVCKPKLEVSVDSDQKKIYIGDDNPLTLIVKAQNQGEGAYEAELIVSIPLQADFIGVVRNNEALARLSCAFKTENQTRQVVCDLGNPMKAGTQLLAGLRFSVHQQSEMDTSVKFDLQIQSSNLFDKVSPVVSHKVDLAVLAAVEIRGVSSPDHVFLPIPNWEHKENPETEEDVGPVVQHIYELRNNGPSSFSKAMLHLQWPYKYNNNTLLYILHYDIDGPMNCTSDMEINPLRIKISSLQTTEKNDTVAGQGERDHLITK", "sequence (P06756 891-1048 limits assumed)": "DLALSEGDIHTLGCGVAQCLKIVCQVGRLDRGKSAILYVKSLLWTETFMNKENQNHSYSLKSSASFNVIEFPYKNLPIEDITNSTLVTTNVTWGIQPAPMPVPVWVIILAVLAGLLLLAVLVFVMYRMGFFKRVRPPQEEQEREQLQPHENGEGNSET", "experiment": "Binding affinity towards vitronectin receptor (alpha V-beta3) was determined", "type": "protein-complex assay", "units": {"Ki": "nM"}, "values": [
      {"smiles": "CCCNC(=O)Nc1cccc(-c2ccc(C[C@H](NC(=O)OC3CCCC3)C(=O)O)cc2)c1", "Ki": 210},
      {"smiles": "CCC(C)NC(=O)Nc1cccc(-c2ccc(C[C@H](NS(=O)(=O)c3c(C)cc(C)cc3C)C(=O)O)cc2)c1", "note": "(stereo partly drawn)", "Ki": 74},
      {"smiles": "CCCNC(=O)Nc1cccc(-c2ccc(C[C@H](NS(=O)(=O)Cc3ccccc3)C(=O)O)cc2)c1", "Ki": 300},
      {"smiles": "CCCNC(=O)Nc1cccc(-c2ccc(C[C@H](NS(=O)(=O)c3cccc(Cl)c3Cl)C(=O)O)cc2)c1", "Ki": 170},
      {"smiles": "Cc1cc(C)c(S(=O)(=O)N[C@@H](Cc2ccc(-c3cccc(NC(=O)NCC(F)(F)C(F)(F)F)c3)cc2)C(=O)O)c(C)c1", "Ki": 80},
      {"smiles": "CCCNC(=O)Nc1cccc(-c2ccc(C[C@H](NS(=O)(=O)C[C@]34CCC(CC3=O)C4(C)C)C(=O)O)cc2)c1", "Ki": 1},
      {"smiles": "Cc1cc(C)c(S(=O)(=O)N[C@@H](Cc2ccc(-c3ccc(C)c(NC(=O)NC4CCCC4)c3)cc2)C(=O)O)c(C)c1", "Ki": 100},
      {"smiles": "Cc1cc(C)c(S(=O)(=O)N[C@@H](Cc2ccc(-c3cccc(NC(=O)NCCSC(F)(F)F)c3)cc2)C(=O)O)c(C)c1", "Ki": 8},
      {"smiles": "CCCNC(=O)Nc1cccc(-c2ccc(C[C@H](NS(=O)(=O)c3ccc(Cl)cc3C(F)(F)F)C(=O)O)cc2)c1", "Ki": 100},
      {"smiles": "Cc1cc(C)c(S(=O)(=O)N[C@@H](Cc2ccc(-c3cccc(NC(=O)NC4CC4)c3)cc2)C(=O)O)c(C)c1", "Ki": 2.5},
      {"smiles": "CCCNC(=O)Nc1cccc(-c2ccc(C[C@H](NC(=O)OCC(C)C)C(=O)O)cc2)c1", "Ki": 900},
      {"smiles": "CCCNC(=O)Nc1cccc(-c2ccc(C[C@H](NS(C)(=O)=O)C(=O)O)cc2)c1", "Ki": 75},
      {"smiles": "Cc1cc(C)c(S(=O)(=O)N[C@@H](Cc2ccc(-c3cccc(NC(=N)N)c3)cc2)C(=O)O)c(C)c1", "Ki": 11},
      {"smiles": "CCCNC(=O)Nc1cccc(-c2ccc(C[C@H](NC(=O)NCc3ccccc3)C(=O)O)cc2)c1", "Ki": 850},
      {"smiles": "CCCNC(=O)Nc1cccc(-c2ccc(C[C@H](NC(=O)OCC)C(=O)O)cc2)c1", "Ki": 120},
      {"smiles": "CCCNC(=O)Nc1cccc(-c2ccc(C[C@H](NS(=O)(=O)c3cc(OC)ccc3OC)C(=O)O)cc2)c1", "Ki": 500},
      {"smiles": "CCCNC(=O)Nc1cccc(-c2ccc(C[C@H](NS(=O)(=O)c3c(C)cc(C)cc3C)C(=O)O)cc2)c1", "Ki": 4},
      {"smiles": "CCCNC(=O)Nc1cccc(-c2ccc(C[C@H](NC(=O)OCC(C)(C)C)C(=O)O)cc2)c1", "Ki": 800},
      {"smiles": "Cc1cc(C)c(S(=O)(=O)N[C@@H](Cc2ccc(-c3cccc(NC(=O)NC(C)C)c3)cc2)C(=O)O)c(C)c1", "Ki": 14},
      {"smiles": "CCCNC(=O)Nc1cccc(-c2ccc(C[C@H](NS(=O)(=O)c3ccccc3S(C)(=O)=O)C(=O)O)cc2)c1", "Ki": "> 10000"},
      {"smiles": "Cc1cc(C)c(S(=O)(=O)N[C@@H](Cc2ccc(-c3cccc(NC(=O)NCC(C)C)c3)cc2)C(=O)O)c(C)c1", "Ki": 10},
      {"smiles": "CCCNC(=O)Nc1cccc(-c2cccc(C[C@H](NS(=O)(=O)c3c(C)cc(C)cc3C)C(=O)O)c2)c1", "Ki": "> 10000"},
      {"smiles": "Cc1cc(C)c(S(=O)(=O)N[C@@H](Cc2ccc(-c3cccc(NC(N)=O)c3)cc2)C(=O)O)c(C)c1", "Ki": 80},
      {"smiles": "Cc1cc(C)c(S(=O)(=O)N[C@@H](Cc2ccc(-c3cccc(NC(=O)NCC(F)(F)F)c3)cc2)C(=O)O)c(C)c1", "Ki": 20},
      {"smiles": "CCCNC(=O)Nc1cccc(-c2ccc(C[C@H](NC(=O)c3ccc(OC)cc3)C(=O)O)cc2)c1", "Ki": "> 10000"},
      {"smiles": "CCCNC(=O)Nc1cccc(-c2ccc(C[C@H](NC(N)=O)C(=O)O)cc2)c1", "Ki": 560},
      {"smiles": "Cc1cc(C)c(S(=O)(=O)N[C@@H](Cc2ccc(-c3cccc(NC(=O)NCc4ccc(C(F)(F)F)cc4)c3)cc2)C(=O)O)c(C)c1", "Ki": 1000},
      {"smiles": "Cc1cc(C)c(S(=O)(=O)N[C@@H](Cc2ccc(-c3cccc(NC(=O)NCc4ccccn4)c3)cc2)C(=O)O)c(C)c1", "Ki": "> 10000"},
      {"smiles": "Cc1cc(C)c(S(=O)(=O)N[C@@H](Cc2ccc(-c3cccc(NC(=O)NCc4ccccc4)c3)cc2)C(=O)O)c(C)c1", "Ki": 60},
      {"smiles": "Cc1cc(C)c(S(=O)(=O)N[C@@H](Cc2ccc(-c3cccc(NC(=O)Nc4nc5ccccc5[nH]4)c3)cc2)C(=O)O)c(C)c1", "Ki": "> 10000"},
      {"smiles": "CCCNC(=O)Nc1cccc(-c2ccc(C[C@H](NC(=O)Oc3ccc(OC)cc3)C(=O)O)cc2)c1", "Ki": 300},
      {"smiles": "CNC(=O)Nc1cccc(-c2ccc(C[C@H](NS(=O)(=O)c3c(C)cc(C)cc3C)C(=O)O)cc2)c1", "Ki": 160},
      {"smiles": "CCCNC(=O)Nc1cccc(-c2ccc(C[C@H](NS(=O)(=O)c3ccc(OC)c(OC)c3)C(=O)O)cc2)c1", "Ki": 750},
      {"smiles": "Cc1cc(C)c(S(=O)(=O)N[C@@H](Cc2ccc(-c3ccc(C)c(NC(=O)NC4CC4)c3)cc2)C(=O)O)c(C)c1", "Ki": 10},
      {"smiles": "CCCNC(=O)Nc1cccc(-c2ccc(C[C@H](NS(=O)(=O)c3ccccc3C)C(=O)O)cc2)c1", "Ki": 70},
      {"smiles": "CCCNC(=O)Nc1cccc(-c2ccc(C[C@H](NS(=O)(=O)c3cc(Cl)ccc3OC)C(=O)O)cc2)c1", "Ki": 1700},
      {"smiles": "CCCNC(=O)Nc1cccc(-c2ccc(C[C@H](NS(=O)(=O)c3ccccc3C(F)(F)F)C(=O)O)cc2)c1", "Ki": "> 10000"},
      {"smiles": "CCCNC(=O)Nc1cccc(-c2ccc(C[C@H](NC(=O)OCc3ccccc3)C(=O)O)cc2)c1", "Ki": 800}
    ]}
  ]
}
